{"source": "paper PMC11187217", "about": "“Anti-adhesive, anti-biofilm and fungicidal action of newly synthesized gemini quaternary ammonium salts” (Scientific Reports, 2024)", "system": "Salmonella Typhimurium TA100", "conditions": "TA100, positive control 15 μg/mL", "method": "The mutagenic potential of the tested gemini QAS was determined using the Ames test[83] using Salmonella Typhimurium TA98 and Salmonella Typhimurium TA100 with defects in histidine biosynthesis. The culture of S. Typhimurium TA98 and S. Typhimurium TA100 was incubated with shaking at 37 °C for 18 h, centrifuged (3000 rpm, 5 min) and OD = 1.5 was determined, at a wavelength of λ = 590 nm. The agar was dissolved and cooled to 42 °C. […] The media were incubated for 48 h at 37 °C. The positive control for the S. Typhimurium TA98 strain was acriflavin (100 μg/ml), and for the S. Typhimurium TA100 strain, sodium azide (15 μg/ml). The negative control was the culture without tested compound and with NaCl (0,9%). After incubation, the colonies were counted and the mutagenicity index (MR) was determined—the ratio of the number of revertants resulting from the mutagenic effect of the tested compound to the number of spontaneous revertants. Experiment was performed in three repetitions."}
{"smiles": "[N-]=[N+]=[N-].[Na+]", "note": "[sodium azide, reference compound]", "values": [{"measurement": "Mutagenicity ratio (MR)", "value": 25.5}, {"measurement": "Number of colonies", "setting": "± SD", "value": "5116.0 ± 5.66"}]}
